Data as given in patent US20140045895A1, “PHARMACEUTICAL DEPOT FOR 5-FLUORO-2-[[(1S)-1-(5-FLUORO-2-PYRIDYL)ETHYL]AMINO]-6-[(5-ISOPROPOXY-1H-PYRAZOL-3-YL)AMINO]PYRIDINE-3-CARBONITRILE” (ASTRAZENECA AB, priority 2010, published 2014).

How the values were obtained:
[1] = Plasma levels after intra-articular injection of 50/50 PLGA formulation; format: in vivo, rats; conditions: 200 μg dose in 50/50 PLGA IA formulation into knees, rat plasma
Method: Animals were anaesthetised with isofluorane and 30 μl PLGA microspheres containing 200 μg injected into each knee using a Hamilton syringe and 25G needle. The vial of microspheres was vortexed before injection of each animal to try and obtain a homogeneous injection solution. Animals were recovered and returned to their home cages until plasma sampling.
Animals were warmed in a hot box for 10 minutes at 42° C. before being placed in a restrainer and 200 μl blood sampled from the lateral tail vein into a Sarsted Multivette 600 Lithium Heparin tube (cat no 15.1673) attached to a 21G needle. Tubes were placed on a roller until centrifugation at 13000 rpm for 5 minutes to sediment red blood cells. Plasma was decanted and stored at −20° C. until analysis by DMPK. Samples were taken 1 h, 3 h, 6 h, 24 h, 48 h, 96 h and 168 h post-injection.
The levels shown are for a 200 μg dose of compound.

[2] = Hydrolytic stability of PA in the acidic microclimate created by polymer degradation; format: physicochemical

period over which release of compound was seen (plasma) [1]: 168 h
hydrolytic stability in acidic microclimate [2]: hydrolytically stable
SMILES: CC(C)Oc1cc(Nc2nc(N[C@@H](C)c3ccc(F)cn3)c(C#N)cc2F)n[nH]1 [PA, 5-fluoro-2-[[(1S)-1-(5-fluoro-2-pyridyl)ethyl]amino]-6-[(5-isopropoxy-1H-pyrazol-3-yl)amino]pyridine-3-carbonitrile]
